In PubChem BioAssay (NCI):
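A five-concentration, 48-hour dose response in 96-well plates underlies each endpoint, interpolated linearly between surrounding concentrations. GI50 marks 50% less growth. Definition used: TGI = concentration required for complete inhibition of growth.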

Legend:
Assay in all cases: DTP human tumour cell line panel, 48 h
[1] = test system: SNB-75 CNS
[2] = test system: A549 NSCLC
[3] = test system: PC-3 prostate
[4] = test system: MOLT-4 leukemia
[5] = test system: ACHN renal
[6] = test system: BT-549 breast
[7] = test system: HCT-116 colon
[8] = test system: 786-0 renal
[9] = test system: KM12 colon
[10] = test system: NCI/ADR-RES ovarian
[11] = test system: LOX IMVI melanoma
[12] = test system: OVCAR-8 ovarian
[13] = test system: EKVX NSCLC
[14] = test system: HS 578T breast
[15] = test system: SW-620 colon
[16] = test system: MDA-MB-468 breast
[17] = test system: A498 renal
[18] = test system: HL-60(TB) leukemia
[19] = test system: NCI-H460 lung
[20] = test system: MDA-MB-231 breast
[21] = test system: SK-MEL-2 melanoma
[22] = test system: HCT-15 colon
[23] = test system: CAKI-1 renal
[24] = test system: U251 CNS
[25] = test system: DU-145 prostate
[26] = test system: NCI-H522 lung
[27] = test system: IGROV1 ovarian
[28] = test system: UO-31 renal
[29] = test system: MCF7 breast
[30] = test system: OVCAR-4 ovarian
[31] = test system: UACC-257 melanoma
[32] = test system: TK-10 renal
[33] = test system: K-562 leukemia
[34] = test system: OVCAR-3 ovarian
[35] = test system: SF-268 CNS
[36] = test system: HCC-2998 colon
[37] = test system: HT29 colon
[38] = test system: OVCAR-5 ovarian
[39] = test system: T-47D breast
[40] = test system: SN12C renal
[41] = test system: NCI-H23 lung
[42] = test system: SK-MEL-28 melanoma
[43] = test system: SK-OV-3 ovarian
[44] = test system: M14 melanoma
[45] = test system: CCRF-CEM leukemia
[46] = test system: HOP-62 NSCLC
[47] = test system: SK-MEL-5 melanoma
[48] = test system: MDA-MB-435
[49] = test system: RPMI-8226 leukemia
[50] = test system: SR leukemia
[51] = test system: COLO 205 colon
[52] = test system: SF-295 CNS
[53] = test system: NCI-H226 lung
[54] = test system: SF-539 CNS
[55] = test system: MALME-3M melanoma
[56] = test system: HOP-92 NSCLC
[57] = test system: UACC-62 melanoma
[58] = test system: SNB-19 CNS
[59] = test system: RXF 393 renal

What does the source list for `COc1ccc(-c2nc3ccc(-c4nnc(SCc5ccccc5)o4)cc3[nH]2)cc1`?
GI50 [1]: 1.66 µM; TGI [1]: 3.27 µM; GI50 [2]: 3.48 µM; TGI [2]: 13.8 µM; GI50 [3]: 3.1 µM; TGI [3]: 11.2 µM; GI50 [4]: 3.58 µM; TGI [4]: > 100 µM; GI50 [5]: 2.48 µM; TGI [5]: 6 µM; GI50 [6]: 3.27 µM; TGI [6]: 7.64 µM; GI50 [7]: 3.66 µM; TGI [7]: 15.7 µM; GI50 [8]: 1.97 µM; TGI [8]: 4.26 µM; GI50 [9]: 11.3 µM; TGI [9]: > 100 µM; GI50 [10]: 2.51 µM; TGI [10]: 7.69 µM; GI50 [11]: 1.91 µM; TGI [11]: 3.73 µM; GI50 [12]: 1.91 µM; TGI [12]: 3.87 µM; GI50 [13]: 3.98 µM; TGI [13]: 16.6 µM; GI50 [14]: 2.77 µM; TGI [14]: 7.29 µM; GI50 [15]: 7.02 µM; TGI [15]: 44.2 µM; GI50 [16]: 2.36 µM; TGI [16]: 7.36 µM; GI50 [17]: 2.17 µM; TGI [17]: 3.97 µM; GI50 [18]: 2.79 µM; TGI [18]: 15.5 µM; GI50 [19]: 3.71 µM; TGI [19]: 16.3 µM; GI50 [20]: 2.55 µM; TGI [20]: 6.3 µM; GI50 [21]: 2.44 µM; TGI [21]: 7.73 µM; GI50 [22]: 2.97 µM; TGI [22]: 11.9 µM; GI50 [23]: 1.98 µM; TGI [23]: 3.81 µM; GI50 [24]: 2.07 µM; TGI [24]: 4.6 µM; GI50 [25]: 6.89 µM; TGI [25]: 23.4 µM; GI50 [26]: 2.27 µM; TGI [26]: 7.08 µM; GI50 [27]: 10.7 µM; TGI [27]: 23.9 µM; GI50 [28]: 4.16 µM; TGI [28]: 16.1 µM; GI50 [29]: 2.86 µM; TGI [29]: 12.8 µM; GI50 [30]: 2.12 µM; TGI [30]: 5.08 µM; GI50 [31]: 4.81 µM; TGI [31]: 23.1 µM; GI50 [32]: 3.13 µM; TGI [32]: 8.83 µM; GI50 [33]: 2.9 µM; TGI [33]: 24.8 µM; GI50 [34]: 2.82 µM; TGI [34]: 6.37 µM; GI50 [35]: 3.53 µM; TGI [35]: 13.7 µM; GI50 [36]: 13.2 µM; TGI [36]: 78.9 µM; GI50 [37]: 3.48 µM; TGI [37]: 12 µM; GI50 [38]: 15.6 µM; TGI [38]: 38.5 µM; GI50 [39]: 2.02 µM; TGI [39]: 4.84 µM; GI50 [40]: 2.07 µM; TGI [40]: 4.88 µM; GI50 [41]: 4.21 µM; TGI [41]: 19.8 µM; GI50 [42]: 3.14 µM; TGI [42]: 12.2 µM; GI50 [43]: 5.51 µM; TGI [43]: 21.5 µM; GI50 [44]: 4.25 µM; TGI [44]: 26.5 µM; GI50 [45]: 2.82 µM; TGI [45]: 19.6 µM; GI50 [46]: 3.17 µM; TGI [46]: 9.51 µM; GI50 [47]: 2.64 µM; TGI [47]: 9.41 µM; GI50 [48]: 3.05 µM; TGI [48]: 11.3 µM; GI50 [49]: 2.96 µM; TGI [49]: 17.4 µM; GI50 [50]: 4.76 µM; TGI [50]: > 100 µM; GI50 [51]: 15.9 µM; TGI [51]: 89.1 µM; GI50 [52]: 2.07 µM; TGI [52]: 4.42 µM; GI50 [53]: 1.76 µM; TGI [53]: 3.84 µM; GI50 [54]: 1.73 µM; TGI [54]: 3.22 µM; GI50 [55]: 1.81 µM; TGI [55]: 3.58 µM; GI50 [56]: 6.46 µM; TGI [56]: 24 µM; GI50 [57]: 2.15 µM; TGI [57]: 6.05 µM; GI50 [58]: 7.81 µM; TGI [58]: 21 µM; GI50 [59]: 2.2 µM; TGI [59]: 7.45 µM
